Source: US20230256007A1 (priority 2022, published 2023)

Experiments:
[1] = test system: patient with sequelae of influenza virus type A infection; settings: Case 3
[2] = test system: patient with sequelae of infection with the delta variant of coronavirus; settings: Case 1
Text: Although the patient was cured after home care, their activity level was lower than that of a healthy person. Fatigue, pain, and decrease in thinking power progressed extremely, and the level of daily life decreased below the level of a healthy person, so they underwent a medical examination at the hospital. The diagnosis based on the physician’s diagnostic criteria was as follows. • (i) Fatigue - persistent, fatigue so pronounced that the activity level is severely impaired: severity 3 (severe) • (ii) Feeling of fatigue after exertion - loss of physical and mental endurance, fatigue aggravated by physical exertion: severity 3 (severe) • (iii) Long recovery time from exertion - it takes 24 hours or more to recover to pre-exertion activity level: severity 2 (moderate) • (iv) Pain - muscle pain, joint pain, headache: severity 2 (moderate) • (v) Sleeping disorder - nonrestorative sleep, insomnia, hypersomnia: severity 2 (moderate) • (vi) Confusion and loss of concentration: severity 2 (moderate) • (vii) Memory impairment - short-term memory is impaired: severity 1 (mild) • (viii) Shortness of breath associated with exertion: severity 2 (moderate) • (ix) Gastrointestinal disorder - diarrhea, irritable bowel syndrome: severity 1 (mild) • (x) Repeated sore throat: severity 1 (mild) • (xi) Dizziness when standing up or fragility: severity 1 (mild) • (xii) Heat/cold intolerance: severity 1 (mild) • (xiii) Body temperature changes, irregular body temperature, cold hands and feet: severity 1 (mild)

[3] = around 3 weeks after inhalation
[4] = after 4 weeks of inhalation, before inhalation severity 2: moderate

In the case of `[HH]` [hydrogen gas, hydrogen], the “Number of days without naps” value ([1]; after 8 weeks) is reported as “increased”, the “Amount of time for physical activity” value ([1]; after 8 weeks, although there was malaise) is reported as “increased” and the “Bowel movements and decreased motivation” value [1, 3] is reported as “improvement”. For the same compound, the Nap time [1, 3] was “decreased”, the General feeling ([1]; around 3 weeks after inhalation, about 4% to 5% hydrogen, 5 hours per day) was “felt a little lighter” and the “Effect on chronic fatigue, pain, and brain fog (summary)” value [2] was “clearly effective”. The “Feeling on inhalation (sympathetic nerves high before inhalation)” value ([2]; after 2 weeks of inhalation) was “felt relaxed and drowsy”, the “Foggy head / brain fog” value ([2]; after 2 weeks of inhalation) was “their head appeared clear and refreshed” and the “Frequency of headache and generalized pain” value ([2]; after 2 weeks of inhalation) was “seemed to decrease”. The “Number of doses of analgesics” value ([2]; after 2 weeks of inhalation) was “decreased”, the “Bedridden chronic severe fatigue (patient's impression)” value ([2]; after 4 weeks of inhalation) was “significantly alleviated” and the “Cognitive ability (patient's impression)” value ([2]; after 4 weeks of inhalation) was “regained some of their writing and summarizing skills”. The “Foggy feeling in the brain (patient's impression)” value ([2]; after 4 weeks of inhalation) was “alleviated”, the “Number of doses of analgesics relative to that before hydrogen inhalation” value ([2]; after 4 weeks of inhalation) was “¼” and the “Other symptoms (not significantly recovered)” value ([2]; after 4 weeks of inhalation) was “did not worsen”. The Sleeping disorder ([2]; after 4 weeks of inhalation) was “same strong symptoms as before”, the “Long recovery time from exertion: severity after inhalation (physician's diagnosis)” value [2, 4] was “severity 1: mild” and the “Loss of concentration: severity after inhalation (physician's diagnosis)” value [2, 4] was “severity 1: mild”. For the same compound, the “Pain, headache: severity after inhalation (physician's diagnosis)” value [2, 4] was “severity 1: mild”, the “Repeated sore throat: severity after inhalation (physician's diagnosis)” value [2, 4] was “severity 1: mild” and the “Fatigue - persistent, activity level severely impaired: severity after inhalation (physician's diagnosis)” value ([2]; after 4 weeks of inhalation, before inhalation severity 3: severe) was “severity 1: mild, or severity 2: moderate”. The “Days on which they feel better like a healthy person” value ([2]; after 4 weeks of inhalation, still falls asleep 2 or 3 days a week) was “more than half the days of the week”, the “Pain due to training, the next day” value ([2]; inhalation for about 90 minutes every day) was “almost eliminated the pain the next day” and the “Falling asleep 1 to 2 hours after exertion (sudden intense fatigue)” value ([2]; inhaling hydrogen for about 90 minutes) was “can avoid falling asleep”. The “Frequency of headache (patient's impression)” value ([2]; since the start of inhalation, once or twice a week before) was “decreased significantly, and headache has almost disappeared” and the “Muscle pain and joint pain after training” value ([2]; two weeks after starting inhalation) was “began to be greatly alleviated”.
